Results taken from US8691865B2 (AbbVie Inc., priority 2008, dated 2014).

These molecules were tested against human Cav2.2 (Homo sapiens, UniProt Q00975) (assay: Assessment of calcium channel activity using FLIPR (Ca2+ influx in IMR32 cells)). Details: not given.
Format: cell-based
How it was run: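 Human neuroblastoma IMR32 cells were seeded at 1−1.2×10^5 cells/well and cultured 48 h at 37 °C before FLIPR calcium influx measurement. Percent inhibition at each concentration was calculated against the no-inhibitor signal, and IC50 came from sigmoidal dose-response fits.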

Chain of human Cav2.2 (Q00975 whole entry): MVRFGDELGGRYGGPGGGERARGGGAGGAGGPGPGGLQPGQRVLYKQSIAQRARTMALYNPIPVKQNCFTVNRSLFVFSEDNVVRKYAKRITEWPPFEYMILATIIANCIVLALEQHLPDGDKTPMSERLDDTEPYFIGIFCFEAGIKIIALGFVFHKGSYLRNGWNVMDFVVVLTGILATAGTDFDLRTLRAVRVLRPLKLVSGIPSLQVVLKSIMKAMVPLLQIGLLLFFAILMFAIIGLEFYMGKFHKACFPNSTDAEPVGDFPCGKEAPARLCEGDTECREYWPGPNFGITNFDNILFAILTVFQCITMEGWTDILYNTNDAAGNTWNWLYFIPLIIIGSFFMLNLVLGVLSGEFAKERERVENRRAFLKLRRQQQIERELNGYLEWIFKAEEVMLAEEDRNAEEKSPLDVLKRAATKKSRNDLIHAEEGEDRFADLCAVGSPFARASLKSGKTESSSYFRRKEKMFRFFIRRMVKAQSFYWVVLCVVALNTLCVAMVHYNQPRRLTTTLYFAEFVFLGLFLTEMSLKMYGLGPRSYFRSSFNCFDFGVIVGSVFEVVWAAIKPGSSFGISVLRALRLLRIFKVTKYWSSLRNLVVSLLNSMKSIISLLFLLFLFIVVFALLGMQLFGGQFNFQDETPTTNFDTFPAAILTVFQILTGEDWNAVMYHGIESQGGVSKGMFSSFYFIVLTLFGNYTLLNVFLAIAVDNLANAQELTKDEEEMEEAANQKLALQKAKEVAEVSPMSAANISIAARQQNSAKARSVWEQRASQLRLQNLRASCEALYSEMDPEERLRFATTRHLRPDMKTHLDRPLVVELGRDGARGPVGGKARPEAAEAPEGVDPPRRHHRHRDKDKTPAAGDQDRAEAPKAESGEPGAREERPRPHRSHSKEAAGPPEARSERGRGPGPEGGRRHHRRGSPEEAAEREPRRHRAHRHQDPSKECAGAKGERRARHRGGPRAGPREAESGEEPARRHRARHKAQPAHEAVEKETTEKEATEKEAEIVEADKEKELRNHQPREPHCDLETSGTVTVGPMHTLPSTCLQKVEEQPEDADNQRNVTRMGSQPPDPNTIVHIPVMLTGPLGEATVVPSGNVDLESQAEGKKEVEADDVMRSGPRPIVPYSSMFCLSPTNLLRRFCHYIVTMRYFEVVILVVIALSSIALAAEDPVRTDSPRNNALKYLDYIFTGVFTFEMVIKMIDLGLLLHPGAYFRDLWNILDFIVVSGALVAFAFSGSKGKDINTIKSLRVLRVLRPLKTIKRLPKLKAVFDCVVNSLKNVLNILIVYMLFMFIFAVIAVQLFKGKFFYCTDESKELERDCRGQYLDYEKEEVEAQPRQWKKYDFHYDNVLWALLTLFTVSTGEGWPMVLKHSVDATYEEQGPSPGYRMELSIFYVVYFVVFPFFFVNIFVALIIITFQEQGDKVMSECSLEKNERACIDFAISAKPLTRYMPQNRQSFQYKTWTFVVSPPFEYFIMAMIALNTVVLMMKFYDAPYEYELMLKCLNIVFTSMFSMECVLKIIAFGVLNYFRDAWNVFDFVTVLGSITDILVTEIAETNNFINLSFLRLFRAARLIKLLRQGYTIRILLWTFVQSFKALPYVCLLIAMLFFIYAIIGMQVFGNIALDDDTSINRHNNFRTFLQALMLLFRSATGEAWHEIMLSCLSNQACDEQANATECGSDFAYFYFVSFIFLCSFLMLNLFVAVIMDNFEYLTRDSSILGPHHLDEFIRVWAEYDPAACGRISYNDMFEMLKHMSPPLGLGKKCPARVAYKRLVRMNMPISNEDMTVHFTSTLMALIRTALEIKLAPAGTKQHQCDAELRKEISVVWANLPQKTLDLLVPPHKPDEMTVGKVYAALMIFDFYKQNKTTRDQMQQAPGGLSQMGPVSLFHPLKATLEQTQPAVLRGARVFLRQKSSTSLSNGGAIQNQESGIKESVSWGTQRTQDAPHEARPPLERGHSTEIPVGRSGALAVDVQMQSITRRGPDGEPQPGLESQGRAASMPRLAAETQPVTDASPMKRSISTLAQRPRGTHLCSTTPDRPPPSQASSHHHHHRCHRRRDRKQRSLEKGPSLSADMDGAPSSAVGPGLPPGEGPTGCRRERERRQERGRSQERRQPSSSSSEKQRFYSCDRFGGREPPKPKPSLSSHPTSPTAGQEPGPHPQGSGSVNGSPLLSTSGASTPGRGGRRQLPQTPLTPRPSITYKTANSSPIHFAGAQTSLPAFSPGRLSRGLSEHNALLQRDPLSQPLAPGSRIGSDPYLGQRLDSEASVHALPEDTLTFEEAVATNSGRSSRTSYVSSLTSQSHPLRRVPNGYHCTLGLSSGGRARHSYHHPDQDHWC
Chain of human Cav2.2 (P54289 25-956 partner limits assumed): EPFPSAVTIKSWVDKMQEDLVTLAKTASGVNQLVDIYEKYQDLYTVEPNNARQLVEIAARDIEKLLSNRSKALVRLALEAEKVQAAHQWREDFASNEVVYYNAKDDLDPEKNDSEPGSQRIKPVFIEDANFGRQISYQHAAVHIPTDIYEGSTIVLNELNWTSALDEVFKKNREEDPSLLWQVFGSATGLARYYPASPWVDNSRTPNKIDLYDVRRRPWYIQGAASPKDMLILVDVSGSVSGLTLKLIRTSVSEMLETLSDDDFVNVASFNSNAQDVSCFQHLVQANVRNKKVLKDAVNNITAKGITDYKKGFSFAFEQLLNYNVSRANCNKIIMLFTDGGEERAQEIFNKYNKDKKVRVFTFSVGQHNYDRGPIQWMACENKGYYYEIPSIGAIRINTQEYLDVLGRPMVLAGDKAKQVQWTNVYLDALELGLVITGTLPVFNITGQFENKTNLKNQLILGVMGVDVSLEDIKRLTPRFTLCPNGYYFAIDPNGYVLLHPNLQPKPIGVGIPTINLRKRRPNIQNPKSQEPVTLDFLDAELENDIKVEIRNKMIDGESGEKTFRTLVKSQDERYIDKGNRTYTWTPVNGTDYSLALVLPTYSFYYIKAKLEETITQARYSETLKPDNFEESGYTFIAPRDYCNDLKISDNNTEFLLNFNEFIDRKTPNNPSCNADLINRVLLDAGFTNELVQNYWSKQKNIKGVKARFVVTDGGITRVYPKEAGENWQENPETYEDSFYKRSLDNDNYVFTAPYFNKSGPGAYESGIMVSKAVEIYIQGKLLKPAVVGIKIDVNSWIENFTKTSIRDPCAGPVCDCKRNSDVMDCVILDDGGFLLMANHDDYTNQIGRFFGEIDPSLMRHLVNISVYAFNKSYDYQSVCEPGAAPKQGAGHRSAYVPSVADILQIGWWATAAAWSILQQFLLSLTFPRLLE
Chain of human Cav2.2 (P54289 957-1103 partner limits assumed): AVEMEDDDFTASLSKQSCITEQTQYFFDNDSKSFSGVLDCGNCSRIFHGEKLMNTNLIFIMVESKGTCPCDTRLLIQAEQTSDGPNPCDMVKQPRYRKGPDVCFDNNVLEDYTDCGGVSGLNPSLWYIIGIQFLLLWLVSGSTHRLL
Chain of human Cav2.2 (P54284 whole entry partner): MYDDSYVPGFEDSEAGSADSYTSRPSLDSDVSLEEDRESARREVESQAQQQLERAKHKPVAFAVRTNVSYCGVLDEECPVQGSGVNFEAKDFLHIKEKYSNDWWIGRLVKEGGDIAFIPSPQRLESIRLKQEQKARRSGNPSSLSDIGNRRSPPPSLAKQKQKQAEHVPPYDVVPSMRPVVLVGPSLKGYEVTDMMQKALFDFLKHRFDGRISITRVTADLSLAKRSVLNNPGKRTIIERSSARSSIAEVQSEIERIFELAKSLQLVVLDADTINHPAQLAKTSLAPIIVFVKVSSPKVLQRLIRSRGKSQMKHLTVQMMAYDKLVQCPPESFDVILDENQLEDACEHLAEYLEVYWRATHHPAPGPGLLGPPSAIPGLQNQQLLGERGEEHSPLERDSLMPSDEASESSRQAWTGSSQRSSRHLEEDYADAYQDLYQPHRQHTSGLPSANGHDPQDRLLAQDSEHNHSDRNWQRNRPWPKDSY

**Q.** With CN[C@H](CC(C)C)C(=O)N[C@@H]1CC[C@H]2CN(c3ccc(C(F)(F)F)cc3)C[C@H]21 [Example 768, N^2-methyl-N-{(3aS,4R,6aR)-2-[4-(trifluoromethyl)phenyl]octahydrocyclopenta[c]pyrrol-4-yl}-D-leucinamide] as the molecule, how does the IC50 read?
**A.** 2.36 µM

**Q.** For O=C(N[C@H]1CC[C@@H]2CN(c3cccc(Cl)c3)C[C@@H]21)[C@@H]1C[C@@H](F)CN1 [Example 643, (4R)-N-[(3aR,4S,6aS)-2-(3-chlorophenyl)octahydrocyclopenta[c]pyrrol-4-yl]-4-fluoro-L-prolinamide], which IC50 is on record?
**A.** 3.57 µM

**Q.** For CC(C)C[C@@H](O)C(=O)N[C@H]1CC[C@@H]2CN(c3cccc(C(F)(F)F)n3)C[C@@H]21 [Example 578, (2R)-2-hydroxy-4-methyl-N-{(3aR,4S,6aS)-2-[6-(trifluoromethyl)pyridin-2-yl]octahydrocyclopenta[c]pyrrol-4-yl}pentanamide], which IC50 is on record?
**A.** 1 µM

**Q.** How did the IC50 turn out when O=C(N[C@H]1CC[C@@H]2CN(c3cccc(C(F)(F)F)n3)C[C@@H]21)c1cccc(O)c1 [Example 577, 3-hydroxy-N-{(3aR,4S,6aS)-2-[6-(trifluoromethyl)pyridin-2-yl]octahydrocyclopenta[c]pyrrol-4-yl}benzamide] was run?
**A.** 2.06 µM

**Q.** With O=C(N[C@H]1CC[C@@H]2CN(c3csc(C(F)F)c3)C[C@@H]21)[C@@H]1C[C@@H](F)CN1 [Example 655, (4R)-N-{(3aR,4S,6aS)-2-[5-(difluoromethyl)-3-thienyl]octahydrocyclopenta[c]pyrrol-4-yl}-4-fluoro-L-prolinamide] as the molecule, how does the IC50 read?
**A.** 19.6 µM

**Q.** For O=C(N[C@H]1CC[C@@H]2CN(c3cccc(C(F)(F)F)n3)C[C@@H]21)c1cc2cc(F)ccc2[nH]1 [Example 697, 5-fluoro-N-{(3aR,4S,6aS)-2-[6-(trifluoromethyl)pyridin-2-yl]octahydrocyclopenta[c]pyrrol-4-yl}-1H-indole-2-carboxamide], which IC50 is on record?
**A.** 2.24 µM

**Q.** How did the IC50 turn out when COc1cccc2[nH]cc(CN[C@H]3CC[C@@H]4CN(c5cccc(C(F)(F)F)n5)C[C@@H]43)c12 [Example 689, (3aR,4S,6aS)-N-[(4-methoxy-1H-indol-3-yl)methyl]-2-[6-(trifluoromethyl)pyridin-2-yl]octahydrocyclopenta[c]pyrrol-4-amine] was run?
**A.** 0.82 µM

**Q.** How did the IC50 turn out when O=C(N[C@H]1CC[C@@H]2CN(c3cccc(C(F)(F)F)n3)C[C@@H]21)c1cc(C2CC2)n[nH]1 [Example 583, 3-cyclopropyl-N-{(3aR,4S,6aS)-2-[6-(trifluoromethyl)pyridin-2-yl]octahydrocyclopenta[c]pyrrol-4-yl}-1H-pyrazole-5-carboxamide] was run?
**A.** 1.12 µM

**Q.** How did the IC50 turn out when FC(F)(F)c1cccc(N2C[C@H]3CC[C@H](NCc4c[nH]nc4-c4cccs4)[C@H]3C2)n1 [Example 669, (3aR,4S,6aS)-N-{[3-(2-thienyl)-1H-pyrazol-4-yl]methyl}-2-[6-(trifluoromethyl)pyridin-2-yl]octahydrocyclopenta[c]pyrrol-4-amine] was run?
**A.** 0.8 µM

**Q.** FC(F)(F)c1cccc(N2C[C@H]3CC[C@H](NCc4nc(-c5ccccc5)[nH]c4Cl)[C@H]3C2)n1 [Example 726, (3aR,4S,6aS)-N-[(5-chloro-2-phenyl-1H-imidazol-4-yl)methyl]-2-[6-(trifluoromethyl)pyridin-2-yl]octahydrocyclopenta[c]pyrrol-4-amine] was tested. Which IC50 did it give?
**A.** 2.16 µM

**Q.** Which IC50 does the source give for O=S(=O)(N[C@H]1CC[C@@H]2CN(c3cccc(C(F)(F)F)n3)C[C@@H]21)c1ccc(Cl)cc1 [Example 700, 4-chloro-N-{(3aR,4S,6aS)-2-[6-(trifluoromethyl)pyridin-2-yl]octahydrocyclopenta[c]pyrrol-4-yl}benzenesulfonamide] here?
**A.** 4.96 µM

**Q.** How did the IC50 turn out when CN[C@@H](CC(C)C)C(=O)N[C@H]1CC[C@@H]2CN(c3ccccc3C(F)(F)F)C[C@@H]21 [Example 618, N^2-methyl-N-{(3aR,4S,6aS)-2-[2-(trifluoromethyl)phenyl]octahydrocyclopenta[c]pyrrol-4-yl}-L-leucinamide] was run?
**A.** 0.63 µM

**Q.** O=C(N[C@H]1CC[C@H]2CN(CCCc3cccc(F)c3)C[C@H]21)C(C1CCCCC1)C1CCCCC1 [Example 68, 2,2-dicyclohexyl-N-{(3aS,4S,6aR)-2-[3-(3-fluorophenyl)propyl]octahydrocyclopenta[c]pyrrol-4-yl}acetamide] was tested. Which IC50 did it give?
**A.** 0.82 µM

**Q.** O=S(=O)(N[C@H]1CC[C@@H]2CN(c3cccc(C(F)(F)F)n3)C[C@@H]21)c1cccc(F)c1 [Example 702, 3-fluoro-N-{(3aR,4S,6aS)-2-[6-(trifluoromethyl)pyridin-2-yl]octahydrocyclopenta[c]pyrrol-4-yl}benzenesulfonamide] was tested. Which IC50 did it give?
**A.** 2.55 µM

**Q.** With Cc1n[nH]cc1CN[C@H]1CC[C@@H]2CN(c3cccc(C(F)(F)F)n3)C[C@@H]21 [Example 695, (3aR,4S,6aS)-N-[(3-methyl-1H-pyrazol-4-yl)methyl]-2-[6-(trifluoromethyl)pyridin-2-yl]octahydrocyclopenta[c]pyrrol-4-amine] as the molecule, how does the IC50 read?
**A.** 2.55 µM

**Q.** For Fc1ccc(-c2n[nH]cc2CN[C@H]2CC[C@@H]3CN(c4cccc(C(F)(F)F)n4)C[C@@H]32)cc1 [Example 672, (3aR,4S,6aS)-N-{[3-(4-fluorophenyl)-1H-pyrazol-4-yl]methyl}-2-[6-(trifluoromethyl)pyridin-2-yl]octahydrocyclopenta[c]pyrrol-4-amine], which IC50 is on record?
**A.** 1.65 µM

Same assay, conditions: IC50 (μM) or percent inhibition (* indicates 3 minute incubation, otherwise 60 minute), IC50; 3 minute pre-incubation (*); IMR32 cells, 80 mM KCl depolarization

**Q.** How did the IC50 turn out when CC(C)C(C(=O)N[C@H]1CC[C@@H]2CN(CC3CCCCC3)C[C@@H]21)c1ccccc1 (stereo partly drawn) [Example 83, N-[(3aR,4S,6aS)-2-(cyclohexylmethyl)octahydrocyclopenta[c]pyrrol-4-yl]-3-methyl-2-phenylbutanamide] was run?
**A.** 2.6 µM

Same assay, conditions: read-out: IC50 (μM) or percent inhibition (* indicates 3 minute incubation, otherwise 60 minute); IC50; 60 minute pre-incubation with compound; IMR32 cells, 80 mM KCl depolarization

**Q.** CC(C)C[C@@H](NS(C)(=O)=O)C(=O)N[C@@H]1CC[C@H]2CN(Cc3cccc(C(F)(F)F)c3)C[C@H]21 [Example 171, N^2-(methylsulfonyl)-N^1-{(3aS,4R,6aR)-2-[3-(trifluoromethyl)benzyl]octahydrocyclopenta[c]pyrrol-4-yl}-D-leucinamide] was tested. Which IC50 did it give?
**A.** 6.16 µM

**Q.** Which IC50 does the source give for “(3aR,4S,6aS)-N-(1H-pyrrolo[2,3-b]pyridin-2-ylmethyl)-2-[6-(trifluoromethyl)pyridin-2-yl]octahydrocyclopenta[c]pyrrol-4-amine [Example 693]” here?
**A.** 1.42 µM

**Q.** Which IC50 does the source give for O=C(N[C@H]1CC[C@H]2CN(Cc3cc(C(F)(F)F)cc(C(F)(F)F)c3)C[C@H]21)C(C1CCCCC1)C1CCCCC1 [Example 59, N-{(3aS,4S,6aR)-2-[3,5-bis(trifluoromethyl)benzyl]octahydrocyclopenta[c]pyrrol-4-yl}-2,2-dicyclohexylacetamide] here?
**A.** 0.51 µM

**Q.** For CC(C)C[C@@H](NC(=O)OC(C)(C)C)C(=O)N[C@H]1CC[C@H]2CN(Cc3cccc(C(F)(F)F)c3)C[C@H]21 (stereo in doubt) [Example 138, N^2-(tert-butyloxycarbonyl)-N^1-{(3aS*,4S*,6aR*)-2-[3-(trifluoromethyl)benzyl]octahydrocyclopenta[c]pyrrol-4-yl}-D-leucinamide], which IC50 is on record?
**A.** 0.82 µM

**Q.** How did the IC50 turn out when O=S(=O)(N[C@H]1CC[C@H]2CN(Cc3cccc(C(F)(F)F)c3)C[C@H]21)c1cccc(C(F)(F)F)c1 [Example 187, 3-(trifluoromethyl)-N-{(3aS,4S,6aR)-2-[3-(trifluoromethyl)benzyl]octahydrocyclopenta[c]pyrrol-4-yl}benzenesulfonamide] was run?
**A.** 1.24 µM

**Q.** CN[C@@H](CC(C)C)C(=O)N[C@@H]1CC[C@H]2CN(Cc3ccccc3)C[C@H]21 [Example 165, N^1-[(3aS,4R,6aR)-2-benzyloctahydrocyclopenta[c]pyrrol-4-yl]-N^2-methyl-L-leucinamide] was tested. Which IC50 did it give?
**A.** > 30 µM

**Q.** O=S(=O)(N[C@@H]1CC[C@H]2CN(Cc3cccc(C(F)(F)F)c3)C[C@H]21)c1cccc(C(F)(F)F)c1 [Example 189, 3-(trifluoromethyl)-N-{(3aS,4R,6aR)-2-[3-(trifluoromethyl)benzyl]octahydrocyclopenta[c]pyrrol-4-yl}benzenesulfonamide] was tested. Which IC50 did it give?
**A.** 1.01 µM

**Q.** O=C(N[C@H]1CC[C@H]2CN(C(c3ccccc3)c3ccccc3)C[C@H]21)C(C1CCCCC1)C1CCCCC1 [Example 120, N-[(3aS,4S,6aR)-2-benzhydryloctahydrocyclopenta[c]pyrrol-4-yl]-2,2-dicyclohexylacetamide] was tested. Which IC50 did it give?
**A.** 3.44 µM

**Q.** With O=S(=O)(c1cccc(C(F)(F)F)c1)N(C1CC1)[C@H]1CC[C@H]2CN(Cc3cccc(C(F)(F)F)c3)C[C@H]21 (relative stereo) [Example 204, N-cyclopropyl-3-(trifluoromethyl)-N-{(3aS*,4S*,6aR*)-2-[3-(trifluoromethyl)benzyl]octahydrocyclopenta[c]pyrrol-4-yl}benzenesulfonamide] as the molecule, how does the IC50 read?
**A.** 1.27 µM

**Q.** For CC(C)C[C@H](N)C(=O)N[C@@H]1CC[C@H]2CN(Cc3cccc(C(F)(F)F)c3)C[C@H]21 (relative stereo) [Example 161, N^1-{(3aS*,4R*,6aR*)-2-[3-(trifluoromethyl)benzyl]octahydrocyclopenta[c]pyrrol-4-yl}-L-leucinamide], which IC50 is on record?
**A.** 3.89 µM

**Q.** For O=C(N[C@H]1CC[C@H]2CN(CCCc3cccc(Cl)c3)C[C@H]21)C(C1CCCCC1)C1CCCCC1 [Example 67, N-{(3aS,4S,6aR)-2-[3-(3-chlorophenyl)propyl]octahydrocyclopenta[c]pyrrol-4-yl}-2,2-dicyclohexylacetamide], which IC50 is on record?
**A.** 1.32 µM

**Q.** For CC(C)C[C@@H](NC(=O)OC(C)(C)C)C(=O)N[C@@H]1CC[C@H]2CN(Cc3cccc(C(F)(F)F)c3)C[C@H]21 (relative stereo) [Example 149, N^2-(tert-butyloxycarbonyl)-N^1-{(3aS*,4R*,6aR*)-2-[3-(trifluoromethyl)benzyl]octahydrocyclopenta[c]pyrrol-4-yl}-D-leucinamide], which IC50 is on record?
**A.** 0.62 µM

**Q.** With CCC[C@H](NC)C(=O)N[C@H]1CC[C@@H]2CN(S(=O)(=O)c3ccc(C(C)(C)C)cc3)C[C@@H]21 [Example 543, N^1-{(3aR,4S,6aS)-2-[(4-tert-butylphenyl)sulfonyl]octahydrocyclopenta[c]pyrrol-4-yl}-N^2-methyl-L-norvalinamide] as the molecule, how does the IC50 read?
**A.** 3.2 µM
